“Also recorded” adds a separate entry of the source. Read-outs that look alike come from different tables or passages of the source.
Tests used:
sleep/wake stages [1] = experiment: Polysomnography in telemetered wild-type and OX2R knockout mice; type: in vivo, mouse; settings: 30 mg/kg oral
Procedure: Polysomnography (PSG) responses to MK-1064 (30 mg/kg) were evaluated following oral administration during the late active phase (administered at Zeitgeber time [ZT] 20:00) either in wild-type or OX2R knockout telemetered mice.
(a) The mean time spent in active wake, light sleep (LS), SWS, and REM sleep during 30-min intervals was determined in wild-type (left panel; n = 5) and OX2R knockout (right panel; n = 7) mice following administration of MK-1064 30 mg/kg (open circles) relative to vehicle (20% vitamin E TPGS, orally; closed circles) during the late active phase (ZT: 20:00). Time points at which significant differences exist between vehicle and MK-1064 responses are indicated by grey vertical lines (*, **, ***p < 0.05, 0.01, 0.001, respectively; linear mixed-effects model for repeated measures).
Continuous PSG recordings were performed following oral MK-1064 or vehicle (20% vitamin E d-alpha tocopheryl polyethylene glycol 1000 succinate [TPGS]) administration. In rodents, electrocorticogram (ECoG) and electromyogram (EMG) and locomotor activity measured via radio-telemetry were scored in 10 second epochs to define light sleep (LS; no movement, moderate EMG tone, theta with <50% delta ECoG [0.5–4 Hz]), slow wave sleep (SWS; no gross movement, reduced EMG, >50% delta ECoG) and rapid eye movement sleep (REM; no movement, little to no EMG activity, primarily theta ECoG [4–7 Hz] activity)[42]. Scored data were then grouped and compiled according to condition (vehicle or compound treatment) averaged over the indicated times (30 minutes or 2 hours) and analyzed statistically as previously described[1][14][40][42]
In male wild-type and Hcrtr1 and 2 homozygous, double knockout mice (Taconic Farms, Germantown, NY), MK-1064 or vehicle was administered during the late active phase (ZT: 20:00, 4 hours before lights on). The effect of compound treatment was assessed using a counterbalanced crossover design in which all animals were alternately treated with drug and vehicle daily for 5 consecutive days with a 2-day intervening washout period. In both mice and rats, the mean time in active wake, LS, SWS and REM sleep was determined for each 30-minute interval. The level of significance for the differences between mean time spent in each stage between the vehicle- and compound-treated groups was determined by a linear mixed-effects model for repeated measures applied t-test, and mean within-subject change relative to vehicle over 2 hours following dosing was analyzed using within-subject ANOVA to determine main effects and one sample t-test to identify significant changes relative to vehicle.

sleep/wake stages [2] = experiment: Polysomnography in telemetered dogs; type: in vivo, dog
Procedure: The mean time spent in sleep stages was determined in radio-telemetry–implanted mice, rats, and dogs, as described previously[1][14][40][42]. Continuous PSG recordings were performed following oral MK-1064 or vehicle (20% vitamin E d-alpha tocopheryl polyethylene glycol 1000 succinate [TPGS]) administration. In rodents, electrocorticogram (ECoG) and electromyogram (EMG) and locomotor activity measured via radio-telemetry were scored in 10 second epochs to define light sleep (LS; no movement, moderate EMG tone, theta with <50% delta ECoG [0.5–4 Hz]), slow wave sleep (SWS; no gross movement, reduced EMG, >50% delta ECoG) and rapid eye movement sleep (REM; no movement, little to no EMG activity, primarily theta ECoG [4–7 Hz] activity)[42]. Scored data were then grouped and compiled according to condition (vehicle or compound treatment) averaged over the indicated times (30 minutes or 2 hours) and analyzed statistically as previously described[1][14][40][42] […]
Mean times in active wake, NREM I, NREM II, and REM sleep were monitored continuously. Vehicle and compound treatment conditions were consolidated into 24-hour periods for each animal, and the mean time spent in each sleep stage for the 2 hours following treatment was determined and significance determined by t-test.

cataplexy = experiment: Food-elicited cataplexy test (FECT); type: in vivo, dog; settings: dogs, 20 mg/kg, 1 hour after administration
Procedure: A standard measure for quantifying narcolepsy with cataplexy in dogs is the food-elicited cataplexy test (FECT).
The FECT was performed essentially as described previously. After a 2-day vehicle run-in period, female dogs (n = 8; Marshall Farms) were treated with MK-1064 (20 mg/kg) or vehicle in a 1-day vehicle x 2-day drug crossover design. Daytime FECTs[32][43][44] with simultaneous video and electrocorticography (ECoG), electromyography (EMG), and electrooculography (EOG) recordings were conducted 1 hour post-dose. Following release into the test room, dogs were remotely monitored while consuming 10 evenly spaced, approximately 1-inch[2] balls of wet dog food (Pedigree® chunk beef). Video and ECoG/EOG/EMG recordings were evaluated for any signs of cataplexy (e.g., collapse, EMG attenuation, sudden-onset REM sleep; see Kushida et al.[43]) and the time needed to consume all 10 balls of food.

Dog plasma free fraction = type: in vitro ADME
[3] = Pharmacokinetics, ascending single-dose study in healthy male subjects; type: in vivo; settings: human, plasma, single oral doses 5 to 250 mg; for half-life: male, po
Procedure: (§1) In the ascending single-dose study, doses of MK-1064 ranging from 5 to 250 mg corresponded with dose-dependent changes in measured plasma levels (Fig. 6a). […] The greatest effects were observed between 1 and 4 hours, and effects greatly diminished 8 hours following treatment, consistent with the time course of plasma concentrations of MK-1064.
(§2) MK-1064 safety, PK and PD were evaluated in a randomised, double-blind, placebo-controlled, alternating panel, single oral ascending-dose first-in-human study (see Fig. 5). Participants were unmedicated healthy male subjects (age 18–45 years) without a history of physical or mental illnesses or sleep abnormalities. Two panels received alternating single ascending oral doses of MK-1064 in up to 5 treatment periods (Panel A: 5, 25, 100 and 200 mg [fasting conditions], 25 mg [fed condition], or matching placebo; Panel B: 10, 50, 150 and 250 mg [all daytime administration], 50 mg [evening administration], or matching placebo). Within each period, subjects were randomized to active treatment (N = 6) and placebo (N = 2) groups. There was a minimum of 3 days between ascending doses occurring between alternating subject panels to enable safety data review; treatments within subject panels were separated by a minimum 7-day washout period. The safety and tolerability of MK-1064 were monitored throughout the study by repeated evaluations of AEs, clinical assessments (semi-recumbent and orthostatic vital signs measurements, 12-lead electrocardiograms (ECGs), physical examinations, neurologic examinations), and safety laboratory tests (chemistry, hematology, urinalysis).
(§3) During each treatment period, blood was collected for PK analysis pre-dose and at time points up to 72 hours post-dose. MK-1064 plasma concentrations were determined by reverse phase high-performance liquid chromatography and detected with tandem mass spectrometry. The lower limit of quantitation was 1 ng/mL and the linear calibration range was 1–1000 ng/mL. PK parameters were calculated with WinNonLin 5.2.1. Values below the assay limit of quantification were indicated with a zero value. PD effects on arousal and mood were assessed by the Karolinska Sleepiness Scale (KSS)[45] and Bond and Lader Visual Analogue Scale (VAS)[46] in exploratory endpoints.

[4] = Safety and tolerability, ascending single-dose study; type: in vivo, human
Source text: In the ascending single-dose study, 52 AEs were considered to be related to the study drug, the most common of which was somnolence/sleepiness, drowsiness, and tiredness (15 of 16 subjects dosed with MK-1064), consistent with the intended pharmacological activity. […] In the PSG study, 13 of the 20 subjects enrolled reported ≥1 clinical AE. Of 24 clinical AEs reported, 18 were considered to be related to study treatment, all of which were mild or moderate in intensity. One report of transient sleep paralysis following MK-1064 250 mg was noted, while the most common MK-1064-related AEs were headache (3 subjects), nightmares (2 subjects) and dizziness (1 subject) (Supplementary Table 2).
as §2

somnolence / alertness = experiment: Karolinska Sleepiness Scale and Bond and Lader VAS in healthy subjects; type: in vivo, human; settings: all single doses greater than 5 mg
Procedure: as §1
Figure 6 MK-1064 dose-dependently promotes somnolence and attenuates arousal in healthy human subjects. (a) Plasma concentration of MK-1064 over time following administration of single doses of MK-1064 5–250 mg. (b) Somnolence, as measured by the KSS, and (c) alertness, as measured by the Bond and Lader VAS, over time following administration of single doses of MK-1064 (5–250 mg) or placebo in healthy human subjects (N = 20).
as §3, with “PD effects on arousal and mood were assessed by the Karolinska Sleepiness Scale (KSS)[45] and Bond and Lader Visual Analogue Scale (VAS)[46] in exploratory endpoints.” left out

[5] = design: method as in PMID 24376006; settings: dogs ref 29; cited from earlier work
[6] = wild-type mice, ZT 20:00, vs vehicle

COc1ccc(CNC(=O)c2cc(-c3cncc(Cl)c3)cnc2-c2ccccn2)nc1OC [MK-1064, 5″-chloro-N-[(5,6-dimethoxypyridin-2-yl)methyl]-2,2′:5′, 3″-terpyridine-3′-carbo xamide]
changes in wake, SWS and REM in OX2R knockout mice (sleep/wake stages [1]; OX2R knockout mice, ZT 20:00): absent
time following treatment with active wake reduction and significant increases in SWS and REM (sleep/wake stages [1]; wild-type mice, ZT 20:00): up to 3.5 hours
REM quantitated over 2 hours (sleep/wake stages [1]; [6]): trend toward an increase
changes in wake and SWS quantitated over 2 hours (sleep/wake stages [1]; [6]): reached significance
active wake (with increases in NREM I, NREM II and REM sleep) (sleep/wake stages [2]; 1 mg/kg oral, 1 hour following administration vs vehicle): Significant active wake reductions
REM sleep in the hour following administration (sleep/wake stages [2]; 20 mg/kg oral, vs vehicle, increased at several later time points): not significantly increased
cataplectic episodes in FECT (cataplexy): no cataplectic episodes; also recorded: cataplexy was not observed
mean time to complete the FECT (cataplexy; not significantly different from vehicle): 37.8 s
fraction unbound (Dog plasma free fraction): 0.286
Cmax [3]: 0.37 to 8.28 µM
Tmax ([3]; read-out: median time of peak concentrations (Tmax)): 1 to 2 h
half-life ([3]; read-out: alpha phase half-life): 1.6 to 4 h
half-life ([3]; read-out: mean apparent terminal half-life): 6.8 to 11.1 h
subjects who experienced headaches ([4]; ascending single-dose study): Nine
suspected serious adverse reactions ([4]; ascending single-dose study): no suspected serious adverse reactions were observed
AEs considered to be related to the study drug ([4]; ascending single-dose study, 5–250 mg): 52
subjects with somnolence/sleepiness, drowsiness, and tiredness ([4]; ascending single-dose study, subjects dosed with MK-1064): 15 of 16
tolerability ([4]; both Phase I studies, healthy male subjects): well tolerated
subject-reported somnolence (KSS) and drowsiness (alertness VAS) (somnolence / alertness): Dose-dependent increases
minimum plasma concentration needed for sleep-promoting efficacy [5]: 0.028 µM
